Data reported in ChEMBL document CHEMBL5303573, “Mapping human microbiome drug metabolism by gut bacteria and their genes” (Nature, 2019).

Columns and labels:
[1] = The drug is tested on Eubacterium ventriosum strain: ATCC27560 for biotransformation. The drug concentrations were measured before and after a 12-h incubation by liquid-chromatography-coupled mass spectrometry (LC–MS); assay type: ADME; parameters: dose 2 uM, timepoint 0 vs 12 hours; conditions: 2 µM
[2] = The drug is tested on Enterobacter cancerogenus strain: ATCC35316 for biotransformation. The drug concentrations were measured before and after a 12-h incubation by liquid-chromatography-coupled mass spectrometry (LC–MS); conditions: 2 µM
[3] = The drug is tested on Blautia hansenii strain: DSM20583 for biotransformation. The drug concentrations were measured before and after a 12-h incubation by liquid-chromatography-coupled mass spectrometry (LC–MS); conditions: 2 µM
[4] = bacteroides thetaiotaomicron, 12 h, 2 µM
Description: The drug is tested on Bacteroides thetaiotaomicron strain: VPI-5482 for biotransformation. The drug concentrations were measured before and after a 12-h incubation by liquid-chromatography-coupled mass spectrometry (LC–MS)

[5] = The drug is tested on Eubacterium hallii strain: DSM3353 for biotransformation. The drug concentrations were measured before and after a 12-h incubation by liquid-chromatography-coupled mass spectrometry (LC–MS); conditions: anaerobutyricum hallii, 2 µM
[6] = The drug is tested on Clostridium scindens strain: ATCC35704 for biotransformation. The drug concentrations were measured before and after a 12-h incubation by liquid-chromatography-coupled mass spectrometry (LC–MS); conditions: 2 µM
[7] = The drug is tested on Anaerococcus hydrogenalis strain: DSM7454 for biotransformation. The drug concentrations were measured before and after a 12-h incubation by liquid-chromatography-coupled mass spectrometry (LC–MS); conditions: 2 µM
[8] = The drug is tested on Bacteroides fragilis strain: ATCC43859 for biotransformation. The drug concentrations were measured before and after a 12-h incubation by liquid-chromatography-coupled mass spectrometry (LC–MS); conditions: 2 µM
[9] = The drug is tested on Dorea formicigenerans strain: ATCC27755 for biotransformation. The drug concentrations were measured before and after a 12-h incubation by liquid-chromatography-coupled mass spectrometry (LC–MS); conditions: 2 µM
[10] = The drug is tested on Bacteroides ovatus strain: ATCC8483 for biotransformation. The drug concentrations were measured before and after a 12-h incubation by liquid-chromatography-coupled mass spectrometry (LC–MS); conditions: 2 µM
[11] = The drug is tested on Clostridium ramosum strain: DSM1402 for biotransformation. The drug concentrations were measured before and after a 12-h incubation by liquid-chromatography-coupled mass spectrometry (LC–MS); conditions: thomasclavelia ramosa, 2 µM
[12] = The drug is tested on Clostridium symbiosum strain: ATCC14940 for biotransformation. The drug concentrations were measured before and after a 12-h incubation by liquid-chromatography-coupled mass spectrometry (LC–MS); conditions: 2 µM
[13] = The drug is tested on Bacteroides fragilis strain: HMW615 for biotransformation. The drug concentrations were measured before and after a 12-h incubation by liquid-chromatography-coupled mass spectrometry (LC–MS); conditions: 2 µM
[14] = The drug is tested on Enterococcus faecalis strain: V583 for biotransformation. The drug concentrations were measured before and after a 12-h incubation by liquid-chromatography-coupled mass spectrometry (LC–MS); conditions: 2 µM
[15] = The drug is tested on Parabacteroides merdae strain: ATCC43184 for biotransformation. The drug concentrations were measured before and after a 12-h incubation by liquid-chromatography-coupled mass spectrometry (LC–MS); conditions: 2 µM
[16] = The drug is tested on Bifidobacterium breve strain: DSM20213 for biotransformation. The drug concentrations were measured before and after a 12-h incubation by liquid-chromatography-coupled mass spectrometry (LC–MS); conditions: 2 µM
[17] = The drug is tested on Bacteroides caccae strain: ATCC43185 for biotransformation. The drug concentrations were measured before and after a 12-h incubation by liquid-chromatography-coupled mass spectrometry (LC–MS); conditions: 2 µM
[18] = bacteroides thetaiotaomicron, 12 h, 2 µM; remark: listed apart in the source
Description: The drug is tested on Bacteroides thetaiotaomicron strain: 7330 for biotransformation. The drug concentrations were measured before and after a 12-h incubation by liquid-chromatography-coupled mass spectrometry (LC–MS)

[19] = enterocloster bolteae, 12 h, 2 µM
Description: The drug is tested on Clostridium bolteae strain: ATCCBAA-613 for biotransformation. The drug concentrations were measured before and after a 12-h incubation by liquid-chromatography-coupled mass spectrometry (LC–MS)

[20] = The drug is tested on Bacteroides finegoldii strain: DSM17565 for biotransformation. The drug concentrations were measured before and after a 12-h incubation by liquid-chromatography-coupled mass spectrometry (LC–MS); conditions: 2 µM

Compound	Bacterial Biotransformation [1]	Bacterial Biotransformation [2]	Bacterial Biotransformation [3]	Bacterial Biotransformation [4]	Bacterial Biotransformation [5]	Bacterial Biotransformation [6]	Bacterial Biotransformation [7]	Bacterial Biotransformation [8]	Bacterial Biotransformation [9]	Bacterial Biotransformation [10]	Bacterial Biotransformation [11]	Bacterial Biotransformation [12]	Bacterial Biotransformation [13]	Bacterial Biotransformation [14]	Bacterial Biotransformation [15]	Bacterial Biotransformation [16]	Bacterial Biotransformation [17]	Bacterial Biotransformation [18]	Bacterial Biotransformation [19]	Bacterial Biotransformation [20]
C[C@H]1O[C@@H](O[C@H]2[C@@H](O)C[C@H](O[C@H]3[C@@H](O)C[C@H](O[C@H]4CC[C@@]5(C)[C@H](CC[C@@H]6[C@@H]5C[C@@H](O)[C@]5(C)[C@@H](C7=CC(=O)OC7)CC[C@]65O)C4)O[C@@H]3C)O[C@@H]2C)C[C@H](O)[C@@H]1O [DIGOXIN]	Compound NOT metabolized	Compound NOT metabolized	Compound metabolized	Compound metabolized	Compound NOT metabolized	Compound NOT metabolized	Compound NOT metabolized	Compound metabolized	Compound NOT metabolized	Compound metabolized	Compound NOT metabolized	Compound NOT metabolized	Compound metabolized	Compound NOT metabolized	Compound metabolized	Compound NOT metabolized	Compound NOT metabolized	Compound metabolized	Compound NOT metabolized	–
O=c1[nH]c2ccccc2n1CCCN1CCC(n2c(=O)[nH]c3cc(Cl)ccc32)CC1 [DOMPERIDONE]	Compound NOT metabolized	Compound NOT metabolized	Compound NOT metabolized	Compound NOT metabolized	Compound NOT metabolized	–	Compound NOT metabolized	Compound NOT metabolized	Compound NOT metabolized	Compound NOT metabolized	Compound NOT metabolized	Compound NOT metabolized	Compound NOT metabolized	Compound NOT metabolized	Compound NOT metabolized	Compound NOT metabolized	Compound NOT metabolized	Compound NOT metabolized	Compound NOT metabolized	Compound NOT metabolized
O=C1[C@H](CC[C@H](O)c2ccc(F)cc2)[C@@H](c2ccc(O)cc2)N1c1ccc(F)cc1 [EZETIMIBE]	Compound metabolized	Compound NOT metabolized	Compound NOT metabolized	Compound NOT metabolized	Compound NOT metabolized	Compound NOT metabolized	Compound NOT metabolized	Compound NOT metabolized	Compound NOT metabolized	–	Compound NOT metabolized	Compound NOT metabolized	Compound NOT metabolized	Compound NOT metabolized	Compound NOT metabolized	Compound NOT metabolized	–	Compound NOT metabolized	Compound NOT metabolized	Compound NOT metabolized
COC(=O)C1=C(C)NC(C)=C(C(=O)OC(C)C)C1c1cccc2nonc12 (stereo not drawn) [ISRADIPINE]	Compound NOT metabolized	Compound NOT metabolized	Compound NOT metabolized	Compound NOT metabolized	Compound NOT metabolized	Compound NOT metabolized	–	Compound NOT metabolized	Compound NOT metabolized	Compound NOT metabolized	Compound NOT metabolized	Compound NOT metabolized	Compound NOT metabolized	Compound NOT metabolized	Compound NOT metabolized	Compound NOT metabolized	–	Compound NOT metabolized	Compound NOT metabolized	Compound NOT metabolized
CC(CCc1ccccc1)NCC(O)c1ccc(O)c(C(N)=O)c1 (stereo not drawn) [LABETALOL]	Compound NOT metabolized	Compound NOT metabolized	Compound NOT metabolized	Compound NOT metabolized	Compound NOT metabolized	–	Compound NOT metabolized	Compound NOT metabolized	Compound NOT metabolized	Compound NOT metabolized	Compound NOT metabolized	Compound NOT metabolized	Compound NOT metabolized	Compound NOT metabolized	Compound NOT metabolized	Compound NOT metabolized	Compound NOT metabolized	Compound NOT metabolized	Compound NOT metabolized	Compound NOT metabolized
CC(=O)O[C@]1(C(C)=O)CC[C@H]2[C@@H]3C=C(C)C4=CC(=O)CC[C@]4(C)[C@H]3CC[C@@]21C [MEGESTROL ACETATE]	Compound NOT metabolized	Compound NOT metabolized	Compound metabolized	–	Compound NOT metabolized	Compound metabolized	Compound NOT metabolized	Compound metabolized	Compound NOT metabolized	Compound NOT metabolized	Compound NOT metabolized	Compound NOT metabolized	Compound metabolized	Compound NOT metabolized	Compound metabolized	Compound NOT metabolized	–	Compound metabolized	Compound NOT metabolized	Compound NOT metabolized
CCN(CC)CCOC(=O)C(Cc1cccc2ccccc12)CC1CCCO1.O=C(O)C(=O)O (stereo not drawn) [NAFRONYL OXALATE]	Compound NOT metabolized	Compound NOT metabolized	Compound metabolized	Compound NOT metabolized	Compound NOT metabolized	Compound NOT metabolized	Compound NOT metabolized	Compound NOT metabolized	Compound NOT metabolized	Compound NOT metabolized	Compound NOT metabolized	Compound NOT metabolized	Compound NOT metabolized	Compound NOT metabolized	–	Compound NOT metabolized	Compound NOT metabolized	Compound NOT metabolized	Compound NOT metabolized	Compound NOT metabolized
CO[C@]12C[C@@H](COC(=O)c3cncc(Br)c3)CN(C)[C@@H]1Cc1cn(C)c3cccc2c13 [NICERGOLINE]	Compound NOT metabolized	Compound NOT metabolized	Compound NOT metabolized	Compound NOT metabolized	Compound NOT metabolized	Compound NOT metabolized	–	Compound NOT metabolized	Compound NOT metabolized	Compound NOT metabolized	Compound NOT metabolized	Compound NOT metabolized	Compound NOT metabolized	Compound NOT metabolized	Compound NOT metabolized	Compound NOT metabolized	Compound NOT metabolized	Compound NOT metabolized	–	Compound NOT metabolized
